Results on 20 compounds are retold here after patent US8097733B2, “Pyrazole derivatives as 5-LO-inhibitors” (Pfizer Inc., priority 2007, dated 2012).

For one test, the target named is T1, recombinant human 5-LOX (Homo sapiens, UniProt P09917).
T1 sequence (P09917 1-674): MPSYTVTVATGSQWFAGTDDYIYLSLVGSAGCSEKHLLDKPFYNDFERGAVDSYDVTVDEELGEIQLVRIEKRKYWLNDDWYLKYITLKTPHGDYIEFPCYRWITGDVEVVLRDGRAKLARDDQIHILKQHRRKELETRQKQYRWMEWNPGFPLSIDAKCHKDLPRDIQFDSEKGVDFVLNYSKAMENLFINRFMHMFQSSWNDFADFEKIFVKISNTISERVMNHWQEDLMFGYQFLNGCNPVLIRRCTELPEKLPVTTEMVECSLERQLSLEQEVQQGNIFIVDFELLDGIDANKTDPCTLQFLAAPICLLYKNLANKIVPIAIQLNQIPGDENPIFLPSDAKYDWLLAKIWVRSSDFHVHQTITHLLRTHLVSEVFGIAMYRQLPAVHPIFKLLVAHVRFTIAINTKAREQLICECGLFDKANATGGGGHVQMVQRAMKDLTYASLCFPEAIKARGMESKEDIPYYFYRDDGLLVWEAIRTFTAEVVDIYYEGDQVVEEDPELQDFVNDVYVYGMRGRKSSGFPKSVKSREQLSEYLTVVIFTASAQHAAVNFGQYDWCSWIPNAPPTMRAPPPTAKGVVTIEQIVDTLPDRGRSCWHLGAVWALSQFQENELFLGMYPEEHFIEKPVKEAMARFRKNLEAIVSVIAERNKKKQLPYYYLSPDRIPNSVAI
The experiment in a line: Fluorescence Intensity 5-LOX Enzyme Assay. The following applies: crude lysate of recombinant human 5-LOX; highest inhibitor concentration tested typically 25 μM. The class given is biochemical. An excerpt:
Bio Data Assays for Allergic and Non Allergic Airways Diseases Fluorescence Intensity 5-LOX Enzyme Assay
The enzyme assay is based on the oxidation of the non-fluorescent compound 2′7′-dichlorodihydrofluorescein diacetate (H2DCFDA) to the fluorescent 2′,7′-dichlorofluorescein by 5-LOX in an arachidonic acid-dependent reaction. Ester cleavage of the acetate groups of the substrate H2DCFDA must occur prior to oxidation. This is achieved through use of a crude cell lysate preparation of recombinant human 5-LOX. The enzyme assay ([…]) contained 50 mM Tris (pH 7.5), 2 mM CaCl2, 2 mM EDTA, 3 μM arachidonic acid (Nu-Chek Prep; #S-1133), 10 μM ATP, 10 μM H2DCFDA (Invitrogen; #D399), inhibitor (varying concentration) and recombinant human 5-LOX enzyme (1.25 μL crude lysate per well).
Inhibitors (dissolved in DMSO) were plated into a 384-well assay plate (Corning #3654) at 1 μL followed by a 20 μL addition of a solution containing 5-LO enzyme and H2DCFDA. Enzyme and H2DCFDA were pre-incubated for 5 min to allow time for acetate group cleavage of the dye prior to addition to the assay plate. After a 10 min pre-incubation of inhibitor and enzyme/dye mix, the assay was initiated by the addition of a substrate solution containing arachidonic acid and ATP. The enzymatic reaction was run for 20 min at room temperature and terminated by the addition of 40 μL of acetonitrile. Assay plates were read in a plate reader using standard wavelengths for fluorescein. IC50s of inhibitors were calculated using a 4-parameter fit using 7 inhibitor concentrations in duplicate with 3-fold serial dilutions. Controls on each plate included no inhibitor (zero percent effect) and 25 μM C J-13610 (one hundred percent effect). The highest inhibitor concentration tested was typically 25 μM. The final DMSO concentration in the assay was 2.5%.

Test [1] deals with human whole blood (leukotriene and prostaglandin levels). In words: Eicosanoid production from human whole blood. The following applies: human whole blood stimulated with calcium ionophore A23187 and arachidonic acid; ELISA. Format: cell-based. Here is the method: Human whole blood is collected in 10 ml heparin tubes (Vacutainer, Becton Dickenson). Collected blood is pooled and 80 μL is dispensed into each well of 384 well polypropylene plates. A PlateMate is used to add 2 μL of compound solution in DMSO to the 80 μL of blood in the polypropylene plates. The plate, with blood and compound added, is incubated at room temperature for 10 minutes. 2 μL of a calcimycin (800 ng/ml) (A23187 C-7522, Sigma) and arachidonic acid (30 μM) (NU-Chek PREP, INC. S-1133) solution in 60% ethanol is then added to the blood using a Micromultidrop. The plates are then incubated at 37° C. in a shallow water bath for 15 minutes. Plates are then spun at 800 g for 10 minutes at 4° C. Supernatant is removed and assayed by Elisa (Caymen Chemical).
Eicosanoid Production from Human Whole Blood:
Human whole blood was collected from healthy or asthmatic human donors in 10 ml heparinized tubes (Vacutainer tubes; Becton Dickenson, Franklin Lakes, N.J.). Collected blood was pooled and 80 μL was dispensed into each well of 384 well polypropylene plates using a Multi-prop™ 384-well dispenser (Titertek, Huntsville, Ala.). Varying concentrations of compounds were dissolved in DMSO then 2 μL/well was added to the blood using a PlateMate Plus™ automated pipetting station (Matrix Technologies, Hudson, N.H.). The compounds were preincubated with the blood at room temperature for 10 minutes followed by stimulation with 40 μM calcium ionophore (A23187, Sigma Chemical Co, St. Louis, Mo., Cat. # C-7522) and 30 μM arachidonic acid (S-1133, NU-Chek PREP, Inc., Elysian, MN, Cat. # S-1133) dissolved in 60% ethanol. After 15 min incubation at 37° C. in a shallow water bath, the blood was centrifuged at 8009 for 10 minutes at 4° C., the supernatants collected, and leukotriene and prostaglandin levels measured by ELISA according to the manufacturer's directions (Cayman Chemical Company, Ann Arbor, Mich.). The assay was performed at a final concentration of 2.5% DMSO.
(In general: An ELISA detects its analyte on a solid surface through an enzyme-linked reagent.)

As to `Cn1nccc1-c1ccc(Sc2cccc(C3(C(N)=O)CCOCC3)c2)c(F)c1` [Example 12, 4-(3-{[2-Fluoro-4-(1-methyl-1H-pyrazol-5-yl)phenyl]thio}phenyl)tetrahydro-2H-pyran-4-carboxamide], the half-maximal inhibitory concentration (IC50) (commonly the concentration needed to halve the response being measured) stood at 454 nM on recombinant human 5-LOX and 267 nM in test [1].
For `Cc1cc(Sc2cccc(C3(C(N)=O)CCOCC3)c2)ccc1-c1ccnn1C` [Example 14, 4-(3-{[3-methyl-4-(1-methyl-1H-pyrazol-5-yl)phenyl]thio}phenyl)tetrahydro-2H-pyran-4-carboxamide], in that order: 110 nM and 447 nM.
For `CNC(=O)C1(c2cc(F)cc(Sc3ccc(-c4ccnn4C)cc3)c2)CCOCC1` [Example 18, 4-(3-fluoro-5-{[4-(1-methyl-1H-pyrazol-5-yl)phenyl]thio}-phenyl)-N-methyltetrahydro-2H-pyran-4-carboxamide], in that order: 369 nM and 596 nM.
The matching figures for `C[C@H]1C[C@@](C#N)(c2cccc(Sc3ccc(-c4ccnn4C)cc3F)c2F)CCO1` [Example 25]: 32.9 nM and 83.6 nM.
In the case of `C[C@H]1C[C@@](C(N)=O)(c2cccc(Sc3ccc(-c4ccnn4C)cc3F)c2F)CCO1` [Example 26, (2S,4R)-4-(2-fluoro-3-(2-fluoro-4-(1-methyl-1H-pyrazol-5-yl)phenylthio)phenyl)-2-methyl-tetrahydro-2H-pyran-4-carboxamide], the IC50 is 28.4 nM on recombinant human 5-LOX and 690 nM in test [1].
The matching figures for `C[C@H]1C[C@@](C(N)=O)(c2cccc(Sc3ccc(-c4ccnn4C)c(F)c3)c2)CCO1` [Example 30, (2S,4R)-4-(3-(3-fluoro-4-(1-methyl-1H-pyrazol-5-yl)phenylthio)phenyl)-2-methyl-tetrahydro-2H-pyran-4-carboxamide]: 14 nM and 200 nM.
The matching figures for `C[C@H]1C[C@@](C(N)=O)(c2cccc(Sc3ccc(-c4ccnn4C)c(F)c3)c2F)CCO1` [Example 31, (2S,4R)-4-(2-fluoro-3-(3-fluoro-4-(1-methyl-1H-pyrazol-5-yl)phenylthio)phenyl)-2-methyl-tetrahydro-2H-pyran-4-carboxamide]: 15.5 nM and 337 nM.
The matching figures for `C[C@H]1C[C@@](C(N)=O)(c2cc(F)cc(Sc3ccc(-c4ccnn4C)c(F)c3)c2)CCO1` [Example 32, (2S,4R)-4-(3-fluoro-5-(3-fluoro-4-(1-methyl-1H-pyrazol-5-yl)phenylthio)phenyl)-2-methyl-tetrahydro-2H-pyran-4-carboxamide]: 16.8 nM and 232 nM.
Turning to `Cn1nccc1Cc1ccc(Sc2cccc(C3(C(N)=O)CCOCC3)c2)cc1` [Example 35, 4-[3-({4-[(1-methyl-1H-pyrazol-5-yl)methyl]phenyl}thio)phenyl]tetrahydro-2H-pyran-4-carboxamide], the IC50 on recombinant human 5-LOX was determined as 313 nM; in test [1] it was 769 nM.
For `Cn1nccc1C(=O)c1ccc(Sc2cccc(C3(C(N)=O)CCOCC3)c2)cc1Cl` [Example 36], in that order: 188 nM and 466 nM.
The matching figures for `Cn1nccc1C(=O)c1ccc(Sc2cccc(C3(C(N)=O)CCOCC3)c2)cc1C(F)(F)F` [Example 37, 4-[3-({4-[(1-methyl-1H-pyrazol-5-yl)carbonyl]-3-(trifluoromethyl)phenyl}thio)phenyl]tetrahydro-2H-pyran-4-carboxamide]: 60.7 nM and 394 nM.
In the case of `Cn1nccc1C(=O)c1ccc(Sc2cccc(C3(C(N)=O)CCOCC3)c2)cc1C#N` [Example 38, 4-[3-({3-cyano-4-[(1-methyl-1H-pyrazol-5-yl)carbonyl]phenyl}thio)phenyl]tetrahydro-2H-pyran-4-carboxamide], the IC50 on recombinant human 5-LOX amounted to 469 nM; in test [1], 640 nM.
For `Cn1nccc1C(=O)c1ncc(Sc2cccc(C3(C(N)=O)CCOCC3)c2)cc1Cl` [Example 42, 4-(3-(5-chloro-6-(1-methyl-1H-pyrazole-5-carbonyl)pyridin-3-ylthio)phenyl)-tetrahydro-2H-pyran-4-carboxamide], in that order: 737 nM and 851 nM.
The matching figures for `COc1ccc(C2(C#N)CCOCC2)cc1Sc1ccc(-c2ccnn2C)cc1` [Example 43, 4-(4-methoxy-3-(4-(1-methyl-1H-pyrazol-5-yl)phenylthio)phenyl)-tetrahydro-2H-pyran-4-carbonitrile]: 575 nM and 913 nM.
The matching figures for `COc1ccc(C2(C(N)=O)CCOCC2)cc1Sc1ccc(-c2ccnn2C)cc1` [Example 44, 4-(4-methoxy-3-(4-(1-methyl-1H-pyrazol-5-yl)phenylthio)phenyl)-tetrahydro-2H-pyran-4-carboxamide]: 138 nM and 866 nM.
Consider `Cn1nccc1-c1ccc(Sc2cccc(C3(C#N)CCOCC3)c2F)c(F)c1` [Example 45, 4-(2-fluoro-3-(2-fluoro-4-(1-methyl-1H-pyrazol-5-yl)phenylthio)phenyl)tetrahydro-2H-pyran-4-carbonitrile], for which the results for the IC50 (at recombinant human 5-LOX; in test [1]) were 84 nM and 33 nM, respectively.
Turning to `Cn1nccc1-c1ncc(Sc2cccc(C3(C#N)CCOCC3)c2)cc1Cl` [Example 47, 4-(3-{[5-chloro-6-(1-methyl-1H-pyrazol-5-yl)pyridin-3-yl]thio}phenyl)tetrahydro-2H-pyran-4-carbonitrile], the values for the IC50 (on recombinant human 5-LOX; in test [1]) were 7770 nM and 676 nM, respectively.
On to `Cn1nccc1-c1ccc(Sc2cccc(C3(C#N)CCOCC3)c2)cc1` [Example 49, 4-(3-{[4-(1-methyl-1H-pyrazol-5-yl)phenyl]thio}phenyl)tetrahydro-2H-pyran-4-carbonitrile], for which the values for the IC50 (at recombinant human 5-LOX; in test [1]) were 2710 nM and 999 nM, respectively.
Take `C[C@H]1C[C@@](C#N)(c2cccc([S+]([O-])c3ccc(-c4ccnn4C)cc3)c2F)CCO1` (stereo partly drawn) [Example 54, (2S,4R)-4-(2-fluoro-3-(4-(1-methyl-1H-pyrazol-5-yl)phenylsulfinyl)phenyl)-2-methyl-tetrahydro-2H-pyran-4-carbonitrile]: the 50% inhibitory concentration (IC50) is 447 nM on recombinant human 5-LOX and 1160 nM in test [1].
For `CCc1cn[nH]c1-c1ccc(Sc2cccc(C3(C(N)=O)CCOCC3)c2)cc1` [Example 59, 4-(3-{[4-(4-ethyl-1H-pyrazol-5-yl)phenyl]thio}phenyl)tetrahydro-2H-pyran-4-carboxamide], in that order: 816 nM and 890 nM.
